Earlier results in patent US12203859B2, “Device for detecting contamination with photosynthesis inhibitor and method for detecting contamination with photosynthesis inhibitor” (National Institute for Environmental Studies, priority 2019, dated 2025).

Test system: marine phytoplankton
Settings: pesticides that directly inhibit photosynthesis of plants

SMILES	fluorescence quantum efficiency of marine phytoplankton
CN(C)C(=O)Nc1ccc(Cl)c(Cl)c1 [Diuron]	decreases
CSc1nc(NC2CC2)nc(NC(C)(C)C)n1 [Irgarol]	decreases
